Type in all cases: in vivo
For assay [1], the system named is Diamond back moth (Plutella xylostella). Briefly: Example B.8: Action on diamond back moth (Plutella xylostella), egg and larval mortality on insect diet in microtiter plates. To be noted: for egg and larval mortality: comparative experiment vs prior art compounds; for mortality at 800 ppm: Plutella xylostella, 120 h, egg and larval mortality after 5 days, read-out: mortality in comparison with untreated controls. The procedure:
For evaluating control of diamond back moth (Plutella xylostella) the test unit consisted of 96-well-microtiter plates containing an insect diet and 15-25 P. xylostella eggs. The compounds or mixtures were formulated using a solution containing 75% water and 25% DMSO. Different concentrations of formulated compounds or mixtures were sprayed onto the insect diet at 5 μl, using a custom-built micro atomizer, at two replications. For experimental mixtures in these tests identical volumes of both mixing partners at the desired concentrations respectively, were mixed together. After application, microtiter plates were incubated at 28±1° C., 80±5% RH for 5 days. Egg and larval mortality was then visually assessed.

Assay [2] shares this test system. Briefly: Example B.6: Action on diamond back moth (Plutella xylostella), cabbage leaf dip, 3rd instar larvae. To be noted: foliar, 72 hours after treatment, read-out: mortality in comparison with untreated controls. The procedure:
The active compound is dissolved at the desired concentration in a mixture of 1:1 (v/v) distilled water: acetone. Surfactant (Kinetic® HV) is added at a rate of 0.01% (v/v). The test solution is prepared at the day of use.
Leaves of cabbage were dipped in test solution and air-dried. Treated leaves were placed in petri dishes lined with moist filter paper and inoculated with ten 3rd instar larvae. Mortality was recorded 72 hours after treatment. Feeding damages were also recorded using a scale of 0-100%.

Assay [3] has as its system yellow fever mosquito (Aedes aegypti). Briefly: whole plant or invertebrate. To be noted: 48 h, larval mortality after 2 days, read-out: mortality in comparison with untreated controls. Here is the method: For evaluating control of yellow fever mosquito (Aedes aegypti) the test unit consisted of 96-well-microtiter plates containing 200 μl of tap water per well and 5-15 freshly hatched A. aegypti larvae.
The active compounds or mixtures were formulated using a solution containing 75% (v/v) water and 25% (v/v) DMSO. Different concentrations of formulated compounds or mixtures were sprayed onto the insect diet at 2.5 μl, using a custom-built micro atomizer, at two replications.
For experimental mixtures in these tests identical volumes of both mixing partners at the desired concentrations respectively, were mixed together.
After application, microtiter plates were incubated at 28 #1° C., 80 #5% RH for 2 days. Larval mortality was then visually assessed.

Assay [4] deals with tobacco budworm (Heliothis virescens). Put plainly: Example B.5: Action on tobacco budworm (Heliothis virescens), egg and larval mortality on insect diet. The note with it: 120 h, egg and larval mortality after 5 days, read-out: mortality in comparison with untreated controls. The procedure: For evaluating control of tobacco budworm (Heliothis virescens) the test unit consisted of 96-well-microtiter plates containing an insect diet and 15-25 H. virescens eggs.
The compounds were formulated using a solution containing 75% v/v water and 25% v/v DMSO. Different concentrations of formulated compounds were sprayed onto the insect diet at 10 μl, using a custom-built micro atomizer, at two replications.
After application, microtiter plates were incubated at about 28±1C and about 80±5% relative humidity for 5 days. Egg and larval mortality were then visually assessed.

Assay [5] relates to Orchid thrips (Dichromothrips corbetti). Briefly: Example B.2: Action on orchid thrips (Dichromothrips corbetti), floral-immersion technique. To be noted: 72 hours after treatment, read-out: mortality in comparison with untreated controls. The procedure: Dichromothrips corbetti adults used for bioassay were obtained from a colony maintained continuously under laboratory conditions. For testing purposes, the test compound is diluted in a 1:1 mixture of acetone:water (vol:vol), plus Kinetic® HV at a rate of 0.01% v/v.
Thrips potency of each compound was evaluated by using a floral-immersion technique. All petals of individual, intact orchid flowers were dipped into treatment solution and allowed to dryin Petri dishes. Treated petals were placed into individual re-sealable plastic along with about 20 adult thrips. All test arenas were held under continuous light and a temperature of about 28° C. for duration of the assay. After 3 days, the numbers of live thrips were counted on each petal. The percent mortality was recorded 72 hours after treatment.

Assay [6] concerns boll weevil (Anthonomus grandis). Put plainly: Example B.3: Action on boll weevil (Anthonomus grandis), egg and larval mortality on insect diet. The note with it: 120 h, egg and larval mortality after 5 days, read-out: mortality in comparison with untreated controls. The procedure:
For evaluating control of boll weevil (Anthonomus grandis) the test unit consisted of 96-well-microtiter plates containing an insect diet and 5-10 A. grandis eggs.
The compounds were formulated using a solution containing 75% (v/v) water and 25% (v/v) DMSO. Different concentrations of formulated compounds were sprayed onto the insect diet at […], using a custom-built micro atomizer, at two replications.
After application, microtiter plates were incubated at about 25±1C and about 75±5% relative humidity for 5 days. Egg and larval mortality were then visually assessed.

The test system of assay [7] is Southern armyworm (Spodoptera eridania), 2nd instar larvae. Put plainly: Example B.7: Action on southern armyworm (Spodoptera eridania), 2nd instar larvae on sprayed lima bean plants. The note with it: 96 h, 4 days after treatment, read-out: mortality in comparison with untreated controls. Here is the method: The active compounds were formulated by a Tecan liquid handler in 100% cyclohexanone as a 10,000-ppm solution supplied in tubes. The 10,000-ppm solution was serially diluted in 100% cyclohexanone to make interim solutions. These served as stock solutions for which final dilutions were made by the Tecan in 50% acetone:50% water (v/v) into 10 or 20 ml glass vials. A nonionic surfactant (Kinetic®) was included in the solution at a volume of 0.01% (v/v). The vials were then inserted into an automated electrostatic sprayer equipped with an atomizing nozzle for application to plants/insects.
Lima bean plants (variety Sieva) were grown 2 plants to a pot and selected for treatment at the 1st true leaf stage. Test solutions were sprayed onto the foliage by an automated electrostatic plant sprayer equipped with an atomizing spray nozzle. The plants were dried in the sprayer fume hood and then removed from the sprayer. Each pot was placed into perforated plastic bags with a zip closure. About 10 to 11 armyworm larvae were placed into the bag and the bags zipped closed. Test plants were maintained in a growth room at about 25° C. and about 20-40% relative humidity for 4 days, avoiding direct exposure to fluorescent light (24-hour photoperiod) to prevent trapping of heat inside the bags. Mortality and reduced feeding were assessed 4 days after treatment, compared to untreated control plants.

Regarding `CC(C)c1ccccc1N1C(=O)CS/C1=N\C(=O)Nc1ccc(-c2nc(Nc3ccc(OC(F)(F)F)cc3)n(C)n2)cc1` [EP3974414 I-001, reference compound], the “egg and larval mortality” value in assay [1] (25 ppm) was determined as 0.

Take `CC(C)c1ccccc1N1C(=O)CS/C1=N\C(=O)Nc1ccc(-c2nc(Nc3cccc(OC(F)(F)F)c3)n(C)n2)cc1` [EP3974414 I-006, reference compound]: the “egg and larval mortality” value amounted to 38 in assay [1] (25 ppm) and 0 in assay [1] (100 ppm).

By mortality is commonly meant the percentage killed. In the case of `Cc1ccc(C(C)C)c(N2C(=O)CS/C2=N\C(=O)Nc2ccc(-c3nn(C)c(NC(=O)c4ccc(C(F)(F)F)cc4)c3C)cc2)c1` [Example C-1, N-[5-[4-[[(Z)-[3-(2-isopropyl-5-methyl-phenyl)-4-oxo-thiazolidin-2-ylidene]carbamoyl]amino]phenyl]-2,4-dimethyl-pyrazol-3-yl]-4-(trifluoromethyl)benzamide], the mortality at 300 ppm in assay [2], in assay [5] and in assay [7] was no less than 75% throughout. Besides, the mortality at 800 ppm in assay [3] is no less than 50%; in assay [4] it was no less than 75%; in assay [6], no less than 75%.

Turning to `CC(=O)OCS/C(=N\C(=O)Nc1ccc(-c2nn(C)c(NC(=O)c3ccc(C(F)(F)F)cc3)c2C)cc1)Nc1cc(C)ccc1C(C)C` [Example C-2, [(Z)-N′-[[4-[1,4-dimethyl-5-[[4-(trifluoromethyl)benzoyl]amino]pyrazol-3-yl]phenyl]carbamoyl]-N-(2-isopropyl-5-methyl-phenyl)carbamimidoyl]sulfanylmethyl acetate], the mortality at 300 ppm in assay [2], in assay [5] and in assay [7] was no less than 75% throughout. In addition, the mortality at 800 ppm in assay [3] was no less than 50%; in assay [4], no less than 75%; in assay [6] it was no less than 75%.

With `Cc1ccc(C(C)C)c(NC(=S)NC(=O)Nc2ccc(-c3nn(C)c(NC(=O)c4ccc(C(F)(F)F)cc4)c3C)cc2)c1` [Example C-3, N-[5-[4-[(2-isopropyl-5-methyl-phenyl)carbamothioylcarbamoylamino]phenyl]-2,4-dimethyl-pyrazol-3-yl]-4-(trifluoromethyl)benzamide], the mortality at 300 ppm in assay [2], in assay [5] and in assay [7] was no less than 75% throughout. Moreover, the mortality at 800 ppm in assay [3] is no less than 50%; in assay [4] it was no less than 75%; in assay [6], no less than 75%.

As for `Cc1ccc(C(C)C)c(N2C(=O)CS/C2=N\C(=O)Nc2ccc(-c3nn(C)c(N(C)C(=O)c4ccc(C(F)(F)F)cc4)c3C)cc2)c1` [Example C-4, N-[5-[4-[[(Z)-[3-(2-isopropyl-5-methyl-phenyl)-4-oxo-thiazolidin-2-ylidene]carbamoyl]amino]phenyl]-2,4-dimethyl-pyrazol-3-yl]-N-methyl-4-(trifluoromethyl)benzamide], the mortality at 300 ppm in assay [2], in assay [5] and in assay [7] was no less than 75% throughout. In addition, the mortality at 800 ppm in assay [3] is no less than 50%; in assay [4], no less than 75%; in assay [6] it was no less than 75%.

Regarding `Cc1ccc(C(C)C)c(N2C(=O)CS/C2=N\C(=O)Nc2ccc(-c3nc(NC(=O)c4ccc(OC(F)(F)F)cc4)n(C)n3)cc2)c1` [Example C-5, N-[5-[4-[[(Z)-[3-(2-isopropyl-5-methyl-phenyl)-4-oxo-thiazolidin-2-ylidene]carbamoyl]amino]phenyl]-2-methyl-1,2,4-triazol-3-yl]-4-(trifluoromethoxy)benzamide], the mortality at 300 ppm in assay [2], in assay [5] and in assay [7] was no less than 75% in each case. Besides, the mortality at 800 ppm in assay [4] and in assay [6] was no less than 75% throughout.

For `Cc1ccc(C(C)C)c(N2C(=O)CS/C2=N\C(=O)Nc2ccc(-c3nn(C)c(NC(=O)c4ccc(OC(F)(F)F)cc4)c3C#N)cc2)c1` [Example C-7, N-[4-cyano-5-[4-[[(Z)-[3-(2-isopropyl-5-methyl-phenyl)-4-oxo-thiazolidin-2-ylidene]carbamoyl]amino]phenyl]-2-methyl-pyrazol-3-yl]-4-(trifluoromethoxy)benzamide], the mortality at 300 ppm in assay [2], in assay [5] and in assay [7] was no less than 75% in each case. Further, the mortality at 800 ppm was no less than 50% in assay [3], no less than 75% in assay [4] and no less than 75% in assay [6].

Turning to `Cc1ccc(C(C)C)c(N2C(=O)CS/C2=N\C(=O)N(C)c2ccc(-c3nn(C)c(NC(=O)c4ccc(OC(F)(F)F)cc4)c3C)cc2)c1` [Example C-112, N-[5-[4-[[(Z)-[3-(2-isopropyl-5-methyl-phenyl)-4-oxo-thiazolidin-2-ylidene]carbamoyl]-methyl-amino]phenyl]-2,4-dimethyl-pyrazol-3-yl]-4-(trifluoromethoxy)benzamide], the mortality at 800 ppm in assay [1] is no less than 75%; in assay [3] it was no less than 50%; in assay [4], no less than 75%; in assay [6] it was no less than 75%.

Regarding `CC(C)c1ccccc1N1C(=O)CS/C1=N\C(=O)Nc1ccc(-c2nc(NC(=O)c3ccc(OC(F)(F)F)cc3)n(C)n2)cc1` [Example C-119], the “egg and larval mortality” value in assay [1] (25 ppm) is on record as 75. Moreover, the mortality at 800 ppm in assay [1] and in assay [6] was no less than 75% each time. For the same compound, the mortality at 300 ppm in assay [7] is no less than 75%.

`CC(C)c1ccccc1N1C(=O)CS/C1=N\C(=O)Nc1ccc(-c2nc(NC(=O)c3cccc(OC(F)(F)F)c3)n(C)n2)cc1` [Example C-126]: the “egg and larval mortality” value in assay [1] (25 ppm) came to 75; in assay [1] (100 ppm) it was 100. The mortality at 800 ppm in assay [1] is no less than 75%; in assay [3], no less than 50%; in assay [4] it was no less than 75%; in assay [6] it was no less than 75%. Further, the mortality at 300 ppm in assay [7] is no less than 75%.

Source of the values: patent US20260055096A1, “AZOLE PESTICIDAL COMPOUNDS” (BASF SE, priority 2022, published 2026).
